Results taken from patent US8546579B2, “Bicycloheteroaryl compounds as P2X7 modulators and uses thereof” (Evotec (US) Inc., priority 2006, dated 2013).

Biological target: T1, P2X7 receptor (Homo sapiens, UniProt Q99572)
T1 construct: host or cells: THP-1 cells differentiated with LPS and IFN-γ
T1 sequence (Q99572 1-595): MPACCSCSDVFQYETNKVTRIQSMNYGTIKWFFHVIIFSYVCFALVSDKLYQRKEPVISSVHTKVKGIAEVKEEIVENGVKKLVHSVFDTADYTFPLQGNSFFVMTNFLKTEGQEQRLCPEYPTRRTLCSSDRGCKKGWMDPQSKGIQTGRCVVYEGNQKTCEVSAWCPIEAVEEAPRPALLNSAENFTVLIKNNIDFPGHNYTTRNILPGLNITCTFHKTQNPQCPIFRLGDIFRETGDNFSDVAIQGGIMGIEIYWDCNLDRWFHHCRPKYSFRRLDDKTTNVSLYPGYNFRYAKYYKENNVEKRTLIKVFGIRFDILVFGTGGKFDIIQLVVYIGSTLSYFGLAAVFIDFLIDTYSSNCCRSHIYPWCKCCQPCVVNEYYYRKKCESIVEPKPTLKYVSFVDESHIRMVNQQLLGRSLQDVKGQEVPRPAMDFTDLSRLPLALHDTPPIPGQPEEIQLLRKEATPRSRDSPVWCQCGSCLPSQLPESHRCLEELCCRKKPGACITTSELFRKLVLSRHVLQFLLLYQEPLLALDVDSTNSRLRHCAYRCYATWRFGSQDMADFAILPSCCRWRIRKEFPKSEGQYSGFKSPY
Assay: IL-1β release assay in differentiated THP-1 cells stimulated with BzATP (Example 9)
Assay type: cell-based
Parameters: inhibition: dose or concentration left out as unconfirmed
Details: 0.1 μM compound; differentiated THP-1 cells, BzATP 250 uM; '*' class symbols; read-out: IL-1β % Inhib. (asterisk classes, 0.1 μM)
Outline: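 THP-1 cells differentiated 16 h with LPS and IFN-γ (100 ng/mL each), re-primed 2 h with LPS, then compound-pretreated 30 min before 250 uM BzATP for 45 min. Supernatant IL-1β quantified by ELISA; background-adjusted percent inhibition fitted to four-parameter logistic for IC50.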

inhibition at 0.1 µM [%] | Compound
0 to 25 | CCOc1ccc(C(=O)Nc2cccc3c(=O)n(CCOC)ccc23)c(O)c1 [Compound 1059]
26 to 50 | COCCn1ccc2c(NC(=O)CCc3ccccc3C)cccc2c1=O [Compound 1062]
0 to 25 | COCCn1ccc2c(NC(=O)c3ccc(-c4ccccc4)o3)cccc2c1=O [Compound 1063]

Same assay, conditions: 0.1 μM compound; differentiated THP-1 cells, BzATP 250 uM; symbols * to ****; read-out: IL-1β % Inhib. (asterisk symbols: at 0.1 μM)

inhibition at 0.1 µM [%] | Compound
0 to 25 | COc1ccccc1CCC(=O)Nc1cccc2c(=O)n(CCN3CCOCC3)ccc12 [Compound 1201]

Same assay, conditions: 0.3 μM compound; differentiated THP-1 cells, BzATP 250 uM; "+" class symbols; read-out: IL-1β % Inhib. @ 0.3 μM

inhibition at 0.3 µM [%] | Compound
≥ 76 | COCCn1ccc2c(NC(=O)Cc3ccc(Cl)c(C(F)(F)F)c3)cccc2c1=O [Compound 1623, 2-(4-Chloro-3-trifluoromethyl-phenyl)-N-[2-(2-methoxy-ethyl)-1-oxo-1,2-dihydro-isoquinolin-5-yl]-acetamide]
0 to 25 | CN(C)CCn1ccc2c(NC(=O)Cc3ccccc3Br)cccc2c1=O [Compound 1613]
51 to 75 | CC(c1ccccn1)n1ccc2c(NC(=O)Cc3ccc(C(F)(F)F)cc3)cccc2c1=O (stereo not drawn) [Compound 1634]
≥ 76 | CC(c1ccccn1)n1ccc2c(NC(=O)Cc3ccc(C(F)(F)F)c(F)c3)cccc2c1=O (stereo not drawn) [Compound 1635]

Same assay, conditions: 0.3 μM compound; differentiated THP-1 cells, BzATP 250 uM; '+' class symbols; read-out: IL-1β % Inhib. @ 0.3 μM

Compound | inhibition at 0.3 µM [%]
CN(C)CCn1ccc2c(NC(=O)c3cccc4c3OCCO4)cccc2c1=O [Compound 1169] | 0 to 25
O=C(Nc1cccc2c(=O)n(CCN3CCOCC3)ccc12)c1ccccc1Cl [Compound 1188] | 0 to 25
CC(=O)OCCn1ccc2c(NC(=O)C3CCN(C(=O)OC(C)(C)C)CC3)cccc2c1=O [Compound 1012] | 26 to 50
O=C(CCc1ccc2c(c1)OCO2)Nc1cccc2c(=O)n(CC3CCOCC3)ccc12 [Compound 1032] | 0 to 25
COc1ccc(C(=O)Nc2cccc3c(=O)n(CC4CCOCC4)ccc23)cc1Cl [Compound 1029] | 0 to 25
Cc1cccc(CCC(=O)Nc2cccc3c(=O)n(CCN(C)C)ccc23)c1 [Compound 1181] | 0 to 25
CCOc1cccc(C(=O)Nc2cccc3c(=O)n(CCOC)ccc23)c1 [Compound 1068] | 0 to 25
COc1ccc(OC)c(CC(=O)Nc2cccc3c(=O)n(CCN(C)C)ccc23)c1 [Compound 1156] | 0 to 25
CN(C)CCn1ccc2c(NC(=O)CCc3cccc(Cl)c3)cccc2c1=O [Compound 1186] | 51 to 75
COCCn1ccc2c(NC(=O)c3ccc(OC)c(Cl)c3)cccc2c1=O [Compound 1067] | 26 to 50
Cc1ccc(CCC(=O)Nc2cccc3c(=O)n(CC4CCOCC4)ccc23)c(C)c1 [Compound 1134] | 0 to 25
COc1cccc(CC(=O)Nc2cccc3c(=O)n(CC4CCOCC4)ccc23)c1 [Compound 1102] | 0 to 25

The next lines start with the values.

inhibition at 0.3 µM [%] | Compound
0 to 25 | CC(C(=O)Nc1cccc2c(=O)n(CC3CCOCC3)ccc12)c1ccccc1 (stereo not drawn) [Compound 1093]
0 to 25 | O=C(Nc1cccc2c(=O)n(CC3CCOCC3)ccc12)c1ccc(Cl)cc1Cl [Compound 1083]
0 to 25 | COc1cccc(CCC(=O)Nc2cccc3c(=O)n(CC4CCOCC4)ccc23)c1 [Compound 1027]
0 to 25 | Cc1ccc(CCC(=O)Nc2cccc3c(=O)n(CCN(C)C)ccc23)c(C)c1 [Compound 1185]
0 to 25 | O=C(CCc1ccccc1Cl)Nc1cccc2c(=O)n(CCN3CCOCC3)ccc12 [Compound 1045]

Same assay, conditions: 0.3 μM compound; differentiated THP-1 cells, BzATP 250 uM; symbols + to ++++; read-out: IL-1β % Inhib. @ 0.3 μM

Compound | inhibition at 0.3 µM [%]
CC(=O)OCCn1ccc2c(NC(=O)CCc3cc(C(F)(F)F)cc(C(F)(F)F)c3)cccc2c1=O [Compound 1376] | 0 to 25
O=C(Cc1csc2ccccc12)Nc1cccc2c(=O)n(CCN3CCOCC3)ccc12 [Compound 1226] | 0 to 25
Cn1ccc2c(NC(=O)CCc3cccc(Cl)c3)cccc2c1=O [Compound 1309] | ≥ 76
CC(=O)OCCn1ccc2c(NC(=O)CC3CCCCC3)cccc2c1=O [Compound 1379] | ≥ 76
COc1cc(CC(=O)Nc2cccc3c(=O)n(Cc4cccnc4)ccc23)cc(OC)c1 [Compound 1360] | 26 to 50
CC(C)Cc1ccc(C(=O)Nc2cccc3c(=O)n(CCN4CCOCC4)ccc23)cc1 [Compound 1243] | 0 to 25
O=C(CCc1ccc(Cl)cc1)Nc1cccc2c(=O)n(CCN3CCOCC3)ccc12 [Compound 1232] | 0 to 25
CC(C)(C)Cn1ccc2c(NC(=O)CCCc3ccccc3)cccc2c1=O [Compound 1263] | 0 to 25
CC(C)(C)Cn1ccc2c(NC(=O)c3ccc4c(c3)OCCCO4)cccc2c1=O [Compound 1273] | 0 to 25
CC(C)(C)Cn1ccc2c(NC(=O)c3ccccc3Cl)cccc2c1=O [Compound 1244] | 0 to 25
COc1c(C)cc(C(=O)Nc2cccc3c(=O)n(Cc4cccnc4)ccc23)cc1C [Compound 1361] | 0 to 25
O=C(Nc1cccc2c(=O)n(CCN3CCOCC3)ccc12)[C@@]12C[C@@H]3C[C@@H](C[C@@H]1C3)C2 [Compound 1223] | 0 to 25
COCCn1ccc2c(NC(=O)c3cc(C)c(OC)c(C)c3)cccc2c1=O [Compound 1323] | 0 to 25
COc1ccc(CC(=O)Nc2cccc3c(=O)n(Cc4cccnc4)ccc23)cc1OC [Compound 1354] | 0 to 25
CN(C)CCn1ccc2c(NC(=O)CC3(O)CCCCCC3)cccc2c1=O [Compound 1388] | 0 to 25

Continued, values first:

inhibition at 0.3 µM [%] | Compound
51 to 75 | COCCn1ccc2c(NC(=O)Cc3ccc(Cl)c(Cl)c3)cccc2c1=O [Compound 1392]
0 to 25 | COCCn1ccc2c(NC(=O)c3cc4ccccc4o3)cccc2c1=O [Compound 1320]
0 to 25 | COCCn1ccc2c(NC(=O)c3ccccc3C)cccc2c1=O [Compound 1310]
0 to 25 | COCCn1ccc2c(NC(=O)CCCc3ccccc3)cccc2c1=O [Compound 1319]
0 to 25 | Cc1ccc(CC(=O)Nc2cccc3c(=O)n(CC(C)(C)C)ccc23)cc1 [Compound 1262]
0 to 25 | O=C(Nc1cccc2c(=O)n(Cc3cccnc3)ccc12)c1cc2ccccc2o1 [Compound 1358]
0 to 25 | CCOc1ccc(CC(=O)Nc2cccc3c(=O)n(CCOC)ccc23)cc1 [Compound 1317]

Same assay, conditions: THP-1; read-out: IL-1β % Inhib.

Compound | inhibition [%]
Cc1ccc(CC(=O)Nc2cccc3c(=O)n(Cc4ccc(OC(F)(F)F)cc4)ccc23)cc1 [Compound 1585] | 0 to 25
O=C(Cc1ccccc1Cl)Nc1cccc2c(=O)n(Cc3ccc(OC(F)(F)F)cc3)ccc12 [Compound 1576] | 0 to 25
CN1CCC(Cn2ccc3c(NC(=O)CCCc4ccccc4)cccc3c2=O)CC1 [Compound 1475] | 0 to 25
CN1CCC(Cn2ccc3c(NC(=O)c4ccc(Cl)cc4Cl)cccc3c2=O)CC1 [Compound 1460] | 0 to 25
O=C(Nc1cccc2c(=O)n(CCCN3CCCC3=O)ccc12)c1ccc(-c2ccccc2)cc1 [Compound 1515] | 0 to 25
COc1ccc(CC(=O)Nc2cccc3c(=O)n(CC4CCN(C)CC4)ccc23)c(OC)c1 [Compound 1484] | 0 to 25
COc1ccc(C(=O)Nc2cccc3c(=O)n(CCCN4CCCC4=O)ccc23)cc1C [Compound 1545] | 0 to 25
COc1ccc(CC(=O)Nc2cccc3c(=O)n(CC4CCN(C)CC4)ccc23)cc1 [Compound 1474] | 0 to 25
COc1ccccc1CCC(=O)Nc1cccc2c(=O)n(CC3CCN(C)CC3)ccc12 [Compound 1467] | 0 to 25
Cc1cc(C(=O)Nc2cccc3c(=O)n(CCCN4CCCC4=O)ccc23)ccc1Cl [Compound 1503] | 0 to 25
Cc1ccc(Cl)cc1C(=O)Nc1cccc2c(=O)n(CCCN3CCCC3=O)ccc12 [Compound 1541] | 0 to 25

More lines, now with the values ahead:

inhibition [%] | Compound
26 to 50 | COc1cccc(CCC(=O)Nc2cccc3c(=O)n(CC4CCN(C)CC4)ccc23)c1 [Compound 1459]
0 to 25 | Cc1ccc(C)c(C(=O)Nc2cccc3c(=O)n(CC(C)(C)C)ccc23)c1 [Compound 1414]
0 to 25 | Cc1cc(C)c(CC(=O)Nc2cccc3c(=O)n(Cc4ccc(OC(F)(F)F)cc4)ccc23)c(C)c1 [Compound 1553]
0 to 25 | Cc1ccc(C(=O)Nc2cccc3c(=O)n(Cc4cccnc4)ccc23)cc1Cl [Compound 1451]
0 to 25 | Cc1ccc(C(=O)Nc2cccc3c(=O)n(CCCN4CCCC4=O)ccc23)c(C)c1 [Compound 1509]

Same assay, conditions: THP-1 cells, BzATP-stimulated IL-1β release, four parameter logistic fit

IC50 [nM] | Compound
731 | CC(=O)OCCn1ccc2c(NC(=O)CCc3cc(C(F)(F)F)cc(C(F)(F)F)c3)cccc2c1=O [Compound 1376]
422 | CC(=O)OCCn1ccc2c(NC(=O)C3CCN(C(=O)OC(C)(C)C)CC3)cccc2c1=O [Compound 1012]
123 | COCCn1ccc2c(NC(=O)Cc3ccc(Cl)c(Cl)c3)cccc2c1=O [Compound 1392]
9.24 | COCCn1ccc2c(NC(=O)Cc3ccc(Cl)c(C(F)(F)F)c3)cccc2c1=O [Compound 1623, 2-(4-Chloro-3-trifluoromethyl-phenyl)-N-[2-(2-methoxy-ethyl)-1-oxo-1,2-dihydro-isoquinolin-5-yl]-acetamide]
41.5 | CC(=O)OCCn1ccc2c(NC(=O)CC3CCCCC3)cccc2c1=O [Compound 1379]
> 1000 | CN(C)CCn1ccc2c(NC(=O)Cc3ccccc3Br)cccc2c1=O [Compound 1613]
262 | CC(c1ccccn1)n1ccc2c(NC(=O)Cc3ccc(C(F)(F)F)cc3)cccc2c1=O (stereo not drawn) [Compound 1634]
112 | CC(c1ccccn1)n1ccc2c(NC(=O)Cc3ccc(C(F)(F)F)c(F)c3)cccc2c1=O (stereo not drawn) [Compound 1635]
> 1000 | CN(C)CCn1ccc2c(NC(=O)CC3(O)CCCCCC3)cccc2c1=O [Compound 1388]
